Experimental data from ChEMBL document CHEMBL1201862, “PubChem BioAssay data set” (2004).
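Results reflect a 48-hour exposure of cells in 96-well plates to compound at five concentrations. GI50 = concentration required for 50% inhibition of growth.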 Calls of active or inactive are those of the source. No stated cut-off is given here; in the data, active = GI50 up to about 1.1 µM and inactive = higher.

How the values were obtained:
Assay in all cases: NCI-60 cell line screen, 48 h
SK-MEL-5 = test system: SK-MEL-5
SK-MEL-2 = test system: SK-MEL-2
OVCAR-4 = test system: OVCAR-4
OVCAR-3 = test system: OVCAR-3
786-0 = test system: 786-0
NCI/ADR-RES = test system: NCI/ADR-RES
ACHN = test system: ACHN
SN12C = test system: SN12C
M14 = test system: M14
MDA-N = test system: MDA-N
SNB-19 = test system: SNB-19
NCI-H460 = test system: NCI-H460
SK-OV-3 = test system: SK-OV-3
HOP-62 = test system: HOP-62
HL-60 = test system: HL-60
DU-145 = test system: DU-145
PC-3 = test system: PC-3
DMS-114 = test system: DMS-114

Measured: GI50

CSc1nc(SC)c2c(C)cn(Cc3ccccc3)c2n1
inactive: SK-MEL-5 > 100 µM | SK-MEL-2 > 100 µM | OVCAR-4 > 100 µM | OVCAR-3 > 100 µM | 786-0 > 100 µM | NCI/ADR-RES > 100 µM | ACHN > 100 µM | SN12C > 100 µM | M14 > 100 µM | MDA-N 30.3 µM | SNB-19 > 100 µM | NCI-H460 80.2 µM | SK-OV-3 > 100 µM | HOP-62 > 100 µM | HL-60 34 µM | DU-145 > 100 µM | PC-3 > 100 µM

O=C1/C(=C\c2ccco2)Oc2ccccc21
inactive: SK-MEL-5 > 100 µM | SK-MEL-2 > 100 µM | OVCAR-4 > 100 µM | OVCAR-3 98.9 µM | 786-0 > 100 µM | NCI/ADR-RES > 100 µM | ACHN > 100 µM | SN12C > 100 µM | M14 > 100 µM | MDA-N > 100 µM | SNB-19 > 100 µM | NCI-H460 > 100 µM | SK-OV-3 > 100 µM | HOP-62 > 100 µM | HL-60 39.4 µM | DU-145 > 100 µM | PC-3 > 100 µM

CN(C)CCNC(=O)C(C)(C)Oc1ccc(C(=O)c2ccc(Cl)cc2)cc1Cl
inactive: SK-MEL-5 2.25 µM | SK-MEL-2 18 µM | OVCAR-4 14.5 µM | OVCAR-3 12.6 µM | 786-0 3.91 µM | NCI/ADR-RES 12.5 µM | ACHN 11 µM | SN12C 13.4 µM | M14 2.45 µM | MDA-N 4.45 µM | SNB-19 13 µM | NCI-H460 7.98 µM | SK-OV-3 15.9 µM | HOP-62 11.5 µM | HL-60 5.26 µM | DU-145 13.2 µM | PC-3 11.5 µM

O=C(CN1CCN(c2ccccn2)CC1)N1CCCn2c1nc1ccccc1c2=O
inactive: SK-MEL-5 > 100 µM | SK-MEL-2 > 100 µM | OVCAR-4 > 100 µM | OVCAR-3 > 100 µM | 786-0 > 100 µM | NCI/ADR-RES > 100 µM | ACHN > 100 µM | SN12C > 100 µM | M14 > 100 µM | MDA-N > 100 µM | SNB-19 > 100 µM | NCI-H460 > 100 µM | SK-OV-3 > 100 µM | HOP-62 > 100 µM | HL-60 > 100 µM | DU-145 > 100 µM | PC-3 > 100 µM

NNc1ccccc1Cl
inactive: SK-MEL-5 30.5 µM | SK-MEL-2 > 100 µM | OVCAR-4 91.2 µM | OVCAR-3 38.7 µM | 786-0 > 100 µM | NCI/ADR-RES > 100 µM | ACHN > 100 µM | SN12C > 100 µM | M14 > 100 µM | MDA-N > 100 µM | SNB-19 > 100 µM | NCI-H460 41.4 µM | SK-OV-3 > 100 µM | HOP-62 > 100 µM | HL-60 2.88 µM | DU-145 > 100 µM | PC-3 69.2 µM

COC1[C@@H](OC(C)=O)[C@@H](NC(=O)C(Cl)(Cl)Cl)C(I)[C@@H](N2C(=O)c3ccccc3C2=O)[C@H]1OC (stereo partly specified)
inactive: SK-MEL-5 > 100 µM | OVCAR-4 72.3 µM | 786-0 > 100 µM | ACHN > 100 µM | SN12C > 100 µM | M14 > 100 µM | SNB-19 > 100 µM | NCI-H460 > 100 µM | HOP-62 > 100 µM | HL-60 > 100 µM | DMS-114 > 100 µM
